Source: patent publication US20240300927A1, “AMIDES AS CBL-B INHIBITORS” (Genentech, Inc., priority 2021, published 2024)

Test system: PBMCs
Test: PBMC IL-2 assay
Type: cell-based
Conditions: read-out: PBMC IL-2 Cell EC50
Method: Immune response to compounds described herein can be assessed via a PBMC IL-2 assay, conducted according to the following protocol. PBMCs (#A19K379053, A19K261022; TPCS) are thawed into complete medium: 1640 medium (#2085568; Gibco), 10% FBS (#SH30084.03; HyClone), and 1× pen/strep. Compounds are 3-fold serially diluted in DMSO in a 384-well polypropylene plate (#P-05525-BC; Labcyte) using the Tecan EVO to generate a source plate with 10 concentrations of each compound, top concentration=4 mM. Compounds are dispensed into a 96-well plate (#6005680; PerkinElmer) using a Labcyte Echo; final dispensed volume of each control and compound is 1000 nL (final DMSO=0.5%). After recovery overnight, cells are seeded at 2×10^5 cells/well into 96-well plates containing compounds and incubated at 37° C., 5% CO2 for 30 min. Cells are stimulated by adding 20 μL/well 1/10 TransAct (#130-111-160; Miltenyi) diluted in complete medium, placed on a shaker for 2 min at 600 rpm, and incubated for 24 h at 37° C., 5% CO2. Plates are centrifuged at 1200 rpm for 5 min and 120 μL cell supernatant collected. Supernatants are diluted 10-fold and IL-2 concentrations of each sample are determined using the IL-2 MSD kit (#K151AHB-4; MSD) per the manufacturer's instructions.

CC(C)[C@H]1CN(C)CCN1Cc1cc(C(=O)Nc2cccc(C3(Cc4nncn4C)CC(F)(F)C3)c2)nc(C2CC2)c1 [Compound 224, (S)-6-cyclopropyl-N-(3-(3,3-difluoro-1-((4-methyl-4H-1,2,4-triazol-3-yl)methyl)cyclobutyl)phenyl)-4-((2-isopropyl-4-methylpiperazin-1-yl)methyl)picolinamide]
EC50: 32 nM
